Results as given in the supplement of paper PMC4862054.

Assays:
Experiment in all cases: normalised response (% of control), CellTiter-Glo; higher = more viable cells (100 = DMSO, 0 = benzethonium chloride kill control)
Conditions in all cases: incubation time: 72 h
[1] = tested on: HCC1143
In short: (§1)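 After 72 h with compound in 384-well plates, breast cancer cell lines seeded as 20 µl suspension were read for CellTox Green fluorescence at 485/520 nm. CellTiter-Glo luminescence was then read after 10 min at room temperature. Compound was present at 5 concentrations in 10-fold steps over a 10,000-fold range set per compound, and plates were normalised to 0.1 % DMSO (100) and a positive kill control (0). Values are normalised signals, each at a single concentration.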

[2] = tested on: CAL-120
In short: as §1

[3] = tested on: HDQ-P1
In short: as §1

[4] = tested on: SK-BR-3
In short: as §1

[5] = tested on: MDA-MB-231
In short: as §1

[6] = tested on: MFM-223
In short: as §1

[7] = tested on: MDA-MB-468
In short: as §1

[8] = tested on: HCC1599
In short: as §1

[9] = tested on: MCF-10A
In short: as §1

[10] = tested on: CAL-51
In short: as §1

[11] = tested on: MDA-MB-453
In short: as §1

[12] = tested on: DU-4475
In short: as §1

[13] = tested on: CAL-85-1
In short: as §1

[14] = tested on: BT-474
In short: as §1

[15] = tested on: BT-549
In short: as §1

[16] = tested on: CAL-148
In short: as §1

[17] = tested on: HCC1937
In short: as §1

[18] = tested on: MDA-MB-436
In short: as §1

[19] = tested on: Hs578T
In short: as §1

SMILES	normalised response [1] [%]	normalised response [2] [%]	normalised response [3] [%]	normalised response [4] [%]	normalised response [5] [%]	normalised response [6] [%]	normalised response [7] [%]	normalised response [8] [%]	normalised response [9] [%]	normalised response [10] [%]	normalised response [11] [%]	normalised response [12] [%]	normalised response [13] [%]	normalised response [14] [%]	normalised response [15] [%]	normalised response [16] [%]	normalised response [17] [%]	normalised response [18] [%]	normalised response [19] [%]
Cn1cnc2c(F)c(Nc3ccc(Br)cc3F)c(C(=O)NOCCO)cc21 [MEK-162] (1 nM)	99.6	100	93.2	116	99	103	103	99.7	96.1	108	103	99.7	95.7	106	99.8	102	96.3	101	95.4
CCOc1cc2ncc(C#N)c(Nc3ccc(OCc4ccccn4)c(Cl)c3)c2cc1NC(=O)/C=C/CN(C)C [Neratinib] (1 nM)	101	96.9	93.8	73.3	107	106	101	99.2	109	80	99.5	105	94.5	100	96.3	107	96.7	97.1	104
COC1=CC(c2cc3ccccc3[nH]2)=N/C1=C\c1[nH]c(C)cc1C [Obatoclax] (10 nM)	95.5	98.8	92.6	90.2	94.6	91.4	98.9	92.2	94.7	121	104	100	93.6	95	96.9	89.9	94.6	91	99.4
COC(=O)C[C@](O)(CCCC(C)(C)O)C(=O)O[C@@H]1C(OC)=C[C@]23CCCN2CCc2cc4c(cc2[C@H]13)OCO4 [Omacetaxine] (10 nM)	109	103	96.1	110	105	106	101	92.5	123	94	109	75.5	98.6	103	104	115	100	88.7	108
CC(C)(C)c1cc(NC(=O)Nc2ccc(-c3cn4c(n3)sc3cc(OCCN5CCOCC5)ccc34)cc2)no1 [Quizartinib] (1 nM)	110	111	98.5	56.6	106	111	104	116	110	112	104	104	106	118	98.8	109	101	104	97.2
O=C(c1ccc(OCCN2CCCCC2)cc1)c1c(-c2ccc(O)cc2)sc2cc(O)ccc12 [Raloxifene] (10 nM)	115	98.7	107	107	99.8	105	112	100	106	68.2	94.7	107	99	105	94.8	106	106	101	105
Cn1c(=O)c(F)c(Nc2ccc(I)cc2F)c2c(=O)n(C[C@@H](O)CO)cnc21 [TAK-733] (1 nM)	103	95	83.7	104	108	113	100	102	83	86.9	98.7	92.4	98.3	45.1	99.2	105	98.1	98.8	98.6
CCS(=O)(=O)c1cccc(-c2cc(C(=O)NC3CCN(C)CC3)c(C)c3[nH]c4ncc(C)cc4c23)c1 [TAK-901] (1 nM)	108	98.1	96	100	101	112	110	117	113	87.8	97	108	98	98.5	101	108	94.2	95.5	103
Cc1cc(C(C)Nc2ccccc2)c2nc(N3CCOCC3)cc(=O)n2c1 (stereo not given) [TGX-221] (1 nM)	93.8	95.8	96.2	97	92.7	101	92.8	89.6	96.5	109	98.5	95.2	92.1	93.1	99.4	95.5	97.6	84	98.4
Cc1cc(C(C)Nc2ccccc2)c2nc(N3CCOCC3)cc(=O)n2c1 (stereo not given) [TGX-221] (10 nM)	102	94.5	95.4	93.2	92.2	96.3	94.7	98.4	92.3	96.5	98.6	97.9	98.2	92.5	95.2	95	98.8	98	97.6
COc1cc(Nc2ncc(F)c(Nc3ccc4c(n3)NC(=O)C(C)(C)O4)n2)cc(OC)c1OC [Tamatinib] (1 nM)	108	102	101	112	107	108	101	114	111	105	121	106	97.9	98.5	101	102	98.5	105	111
COc1cc(Nc2ncc(F)c(Nc3ccc4c(n3)NC(=O)C(C)(C)O4)n2)cc(OC)c1OC [Tamatinib] (10 nM)	108	102	103	100	107	111	97.6	95.1	107	98.3	108	106	103	100	101	105	102	95.9	113
C[C@@H]1CCN(C(=O)CC#N)C[C@@H]1N(C)c1ncnc2[nH]ccc12 [Tofacitinib] (0.5 nM)	98	99	103	113	104	103	103	102	111	71.3	103	117	107	106	95.6	113	97.3	102	100
CCCC(CCC)C(=O)O [Valproic acid] (100 nM)	102	103	101	95.8	105	95.5	97.1	88.9	101	103	109	96.2	97.1	98.9	99.7	102	96.4	106	104
FC(F)c1nc2ccccc2n1-c1nc(N2CCOCC2)nc(N2CCOCC2)n1 [ZSTK474] (1 nM)	96.8	97.7	101	97.7	99.7	99	100	101	106	81.5	106	96.6	92.5	98.8	104	96.8	100	97.9	102
